16 molecules from ChEMBL document CHEMBL1138403, “Nitrogen-containing flavonoids as CDK1/Cyclin B inhibitors: design, synthesis, and biological evaluation” (Bioorg Med Chem Lett, 2007) can be followed below.

As a reminder, the IC50 is the concentration that gives 50% inhibition. Read a low IC50 as higher potency.

Assay [1] relates to PC-3. The assay is described as follows: Cell cycle arrest in human PC3 cells assessed as accumulation at SubG0 phase at 7.2 uM after 24 hrs relative to control by flow cytometry. It counts as functional. (In flow cytometry, cells or beads pass a laser one at a time.)
The test system of assay [2] is PC-3. The assay can be described thus: Cell cycle arrest in human PC3 cells assessed as accumulation at G0/G1 phase at 7.2 uM after 24 hrs relative to control by flow cytometry. It is filed as functional.
Assay [3] has as its system PC-3. The assay is described as follows: Cell cycle arrest in human PC3 cells assessed as accumulation at G2/M phase at 7.2 uM after 12 hrs relative to control by flow cytometry. It is filed as functional.
The test system of assay [4] is MCF7. The assay is described as follows: Antiproliferative activity against human MCF7 cells after 72 hrs. It counts as functional, cell-based. The conditions noted are these: MCF7, 72 h.
Assay [5] concerns PC-3. The assay is described as follows: Cell cycle arrest in human PC3 cells assessed as accumulation at S phase at 7.2 uM after 24 hrs relative to control by flow cytometry. It counts as functional.
Assay [6] relates to PC-3. The assay can be described thus: Effect on morphology of human PC3 cells assessed as increase in chromatin condensation by staining method. It is filed as functional, cell-based.
For assay [7], the system named is A549. The assay is described as follows: Antiproliferative activity against human A549 cells after 72 hrs. It counts as functional, cell-based. The conditions noted are these: A549, 72 h.
In assay [8] the test system is PC-3. The assay is described as follows: Cell cycle arrest in human PC3 cells assessed as accumulation at G0/G1 phase at 7.2 uM after 12 hrs relative to control by flow cytometry. It counts as functional.
The subject of assay [9] is Bel-7402. The assay is described as follows: Antiproliferative activity against human Bel7402 cells after 72 hrs. It counts as functional, cell-based. The conditions noted are these: Bel-7402, 72 h.
Assay [10] deals with HL-60. The assay is described as follows: Antiproliferative activity against human HL60 cells after 72 hrs. It counts as functional, cell-based. The conditions noted are these: HL-60, 72 h.
Assay [11] relates to PC-3. The assay is described as follows: Cell cycle arrest in human PC3 cells assessed as accumulation at S phase at 7.2 uM after 12 hrs relative to control by flow cytometry. It is filed as functional.
The nature of assay [12]: Inhibition of CDK1/Cyclin B. Set-up: species or system Homo sapiens.
In assay [13] the test system is PC-3. The assay is described as follows: Antiproliferative activity against human PC3 cells after 72 hrs. The conditions noted are these: PC-3, 72 h. It counts as functional, cell-based.
Assay [14] deals with PC-3. The assay is described as follows: Cell cycle arrest in human PC3 cells assessed as accumulation at SubG0 phase at 7.2 uM after 12 hrs relative to control by flow cytometry. It counts as functional.
In assay [15] the test system is PC-3. The assay can be described thus: Cell cycle arrest in human PC3 cells assessed as accumulation at G2/M phase at 7.2 uM after 24 hrs relative to control by flow cytometry. It counts as functional.
Assay [16] can be described thus: Antiproliferative activity against human ECA109 cells after 72 hrs. It is filed as functional, cell-based. The conditions noted are these: ECa-109, 72 h.

As for `COc1cc(OC)c(C(=O)/C=C/c2ccccc2Cl)c(O)c1CN1CCCCC1`, the Activity in assay [1] is 34.1%; in assay [2], 60.7%; in assay [3] it was 14%; in assay [5] it was 29.9%; in assay [6], “Dose-dependent effect”; in [8] it was 60.2%. Besides, the values for the Activity in assay [11], in assay [14] and in [15] were 25.8%, 6.1% and 9.8%, respectively. The IC50 in assay [4] stood at 2.6 µM; in [7], 2.8 µM; in assay [9], 3.1 µM; in assay [10] it was 3.6 µM; in assay [12], 0.0569 µM; in assay [13], 1.7 µM. In addition, in assay [16], half-maximal inhibition (IC50) required 2.5 µM.
As to `COc1cc(OC)c(C(=O)/C=C/c2ccccc2Cl)c(O)c1CN1CCCC1`, the IC50 in assay [4] is 3.9 µM; in assay [7], 2.6 µM; in [9], 6.8 µM; in assay [10], 14.2 µM; in assay [12], 1.25 µM; in assay [13], 3.1 µM. For the same molecule, in [16], half-maximal inhibition (IC50) required 6.9 µM.
Take `CCN(C)Cc1c(OC)cc(OC)c(C(=O)/C=C/c2ccccc2Cl)c1O`: the IC50 in assay [4] came to 6.8 µM; in assay [7], 1.3 µM; in [9], 23.3 µM; in assay [10], 0.2 µM; in [12] it was 0.0758 µM; in assay [13] it was 0.003 µM. The molecule further yielded an IC50 in assay [16] of 1.4 µM.
In the case of `COc1cc(OC)c2c(=O)cc(-c3ccccc3Cl)oc2c1CN1CCCCC1`, the concentration for half-maximal inhibition (IC50) in [4] is 23.7 µM; in assay [7], greater than 150 µM; in assay [9], 44.2 µM; in [10] it was 34.5 µM; in assay [12], 0.155 µM; in assay [13], 15.5 µM. Also, half-maximal inhibition in [16] (IC50) required 23.7 µM.
As to `COc1cc(OC)c(C(=O)/C=C/c2ccccc2Cl)c(O)c1CN(C)CCOC(C)=O`, the concentration for half-maximal inhibition (IC50) amounted to 5.1 µM in assay [4]; 3.3 µM in [7]; 8.1 µM in [9]; 10.8 µM in assay [10]; 0.324 µM in assay [12]; 10 µM in assay [13]. The IC50 in assay [16] came to 3.9 µM.
Regarding `CCN(CC)Cc1c(OC)cc(OC)c(C(=O)/C=C/c2ccccc2Cl)c1O`, the IC50 in [4] was found to be 2.7 µM; in [7], 3.6 µM; in assay [9], 6.7 µM; in [10] it was 30.9 µM; in assay [12] it was 0.0497 µM; in assay [13], 4.2 µM. The molecule further showed a 50% inhibitory concentration (IC50) in assay [16] of 7.1 µM.
For the molecule `COc1cc(O)c2c(=O)cc(-c3ccccc3Cl)oc2c1CN1CCCCC1`, the IC50 in assay [7] is 45.5 µM; in assay [9], 118 µM; in assay [10], 48.1 µM; in [12], 0.138 µM; in assay [13], 63.4 µM; in [16] it was 21.5 µM.
Take `COc1cc(OC)c(C(=O)/C=C/c2ccccc2Cl)c(O)c1CN1CCN(C)CC1`: the IC50 was 5.2 µM in assay [4]; 4.1 µM in assay [7]; 7.6 µM in [9]; 10.9 µM in [10]; greater than 3 µM in assay [12]; 4.7 µM in assay [13]. In assay [16], the IC50 was 7.1 µM.
As for `COc1cc(OC)c(C(=O)/C=C/c2ccccc2Cl)c(O)c1CN1CCOCC1`, the IC50 in [4] came to 17.2 µM; in assay [7], 4.8 µM; in [9], 22.7 µM; in [10] it was 6.9 µM; in assay [12], 0.0475 µM; in [13] it was 17.2 µM. The same molecule returned an IC50 in assay [16] of 6.2 µM.
For the molecule `COc1cc(O)c2c(=O)cc(-c3ccccc3Cl)oc2c1CN1CCOCC1`, the IC50 is 124 µM in [4]; greater than 150 µM in assay [7]; greater than 150 µM in assay [9]; 26.9 µM in [10]; greater than 3 µM in [12]; 42 µM in [13]. For the same molecule, the IC50 in assay [16] is 86.6 µM.
For `COc1cc(OC)c2c(=O)cc(-c3ccccc3Cl)oc2c1CN1CCOCC1`, the IC50 in [7] was greater than 150 µM; in assay [9], 61.3 µM; in assay [10], 67.3 µM; in [12] it was greater than 3 µM; in [13], 57.8 µM; in assay [16], 61.3 µM.
On to `COc1cc(OC)c(C(=O)/C=C/c2ccccc2Cl)c(O)c1CN(C)CC(=O)O`, for which the IC50 in assay [4] was determined as 73.2 µM; in [7] it was 79.4 µM; in assay [9], 35.2 µM; in assay [10], 80.3 µM; in assay [13], 12.5 µM; in [16], 44.4 µM.
For `COc1cc(OC)c(C(=O)/C=C/c2ccccc2Cl)c(O)c1CN(C)C`, the half-maximal inhibitory concentration (IC50) in [4] was 0.09 µM; in [7], 2.1 µM; in assay [9] it was 21.8 µM; in assay [10] it was 19.2 µM; in assay [12] it was 0.503 µM; in [13], 0.4 µM. Also, 2.6 µM corresponded to half-maximal inhibition in assay [16] (IC50).
For `COc1cc(OC)c(C(=O)/C=C/c2ccccc2Cl)c(O)c1CN(C)CCO`, the IC50 in [4] is 10 µM; in [7], 6.9 µM; in assay [9], 64.4 µM; in [10], 19.7 µM; in assay [12] it was greater than 3 µM; in [13] it was 6.2 µM. Also, the IC50 in [16] was determined as 0.8 µM.
`COC(=O)CN(C)Cc1c(OC)cc(OC)c(C(=O)/C=C/c2ccccc2Cl)c1O`: the IC50 in assay [4] is 10.6 µM; in assay [7], 9.1 µM; in [9], 8.5 µM; in assay [10] it was 0.4 µM; in assay [12], greater than 3 µM; in assay [13], 7.2 µM. The same molecule yielded an IC50 in assay [16] of 13.9 µM.
Take `COc1cc(OC)c(C(=O)/C=C/c2ccccc2Cl)c(O)c1CN(C)CCCN(C)C`: the IC50 in assay [4] was 3.2 µM; in assay [7], 3.1 µM; in assay [9], 30.9 µM; in [10], 11.4 µM; in [12] it was 0.468 µM; in assay [13], 14.5 µM. Further, in [16], the midpoint of inhibition, the IC50, lay at 3.8 µM.
